Where no end group is shown, it is not given here.
Columns and labels:
ERK1/ERK2 = ERK1/ERK2 activation in neutrophils in suspension; type: cell-based, human; conditions: TNF, TNF70-80 15 min; PMA 100 nM 5 min
Protocol: (§1) The cells were lysed and the lysate assessed by western blot analysis for the level of dual-phosphorylated ERK1/ERK2 (top panel) and ERK2 protein (bottom panel). […] The level of myelin basic protein phosphorylation was quantitated by an Instant Imager.
Neutrophils were prepared from peripheral blood of healthy donors by a rapid single-step technique (Kumaratilake, L. M., Rathjen, D. A., Mack, P., Widmer, F., Prasertsiriroj, V., and Ferrante, A. (1995) J. Clin. Invest. 95: 2315-2323) using Hypaque-Ficoll and according to the institution's guidelines on human ethics. […]
KHS (hereon referred to as “GCKR”) activity was assayed as described previously using myelin basic protein as a substrate (Shi, C. S., Leonardi, A., Kyriakis, J., Siebenlist, U., and Kerhl, J. H. (1999) J. Immunol. 163: 3279-3285). ASK-1 activation was determined in immunoprecipitates of ASK-1 by autophosphorylation (Kyriakis, J. M., and Auruch, J. (2001) Physiol. Rev. 81: 807-869). p38 and ERK activities were determined as described using myelin basic protein as a substrate (Hii, C. S., Huang, Z. H., Bilney, A., Costabile, M., Murray, A. W., Rathjen, D. A., Der, C. J., and Ferrante, A. (1998) J. Biol. Chem. 273: 19277-19282). […]

neutrophils = test: Neutrophil superoxide production, lucigenin chemiluminescence assay; type: cell-based, human
Protocol: Neutrophils were pre-treated with varying concentrations of SB203580 for 30 min and then exposed to 10 μM TNF70-80. The lucigenin enhanced chemiluminescence produced by the cells was measured in a luminometer. The peak initial rate of chemiluminescence produced is presented as the mean±sem of six experiments. The response in the presence of the inhibitor is expressed as a % of the control response.
Neutrophil superoxide production was measured as the chemiluminescence generated by the reduction of lucigenin, essentially as described previously (Kumaratilake, L. M., Rathjen, D. A., Mack, P., Widmer, F., Prasertsiriroj, V., and Ferrante, A. (1995) J. Clin. Invest. 95: 2315-2323). Briefly, to 1×10^6 neutrophils in 400 μl of HBSS was added 100 μl of stimulus and 500 μl of 250 μg/ml of lucigenin. The chemiluminescence was measured in a luminometer (Berthold Technologies, Bad Wildbad, Germany) over a 20 min period and the data imported into Microsoft Excel (Redmond, Wash.).
The cells were placed in a water-jacketed luminometer chamber (37° C.) (Autolumat Plus Model LB 953, Berthold Technologies, Bundoora, Australia) and the resulting light output recorded in millivolts (mV) at 10 second intervals. The data was analysed with Multiuser software (Berthold Tubemaster, Bundoora, Australia). The results are expressed as peak superoxide produced.
Various concentrations of TNFR1 fragment or diluent were added to neutrophils (106 in 100 μl HBSS) and incubated at 37° C. for 30 min 5% CO2 in air. After incubation 500 μl of lucigenin (250 μM, final), 100 μl of TNF70-80 (100 μg) were added and the final volume was adjusted to 1 ml.
Superoxide production by human neutrophils was measured by the reduction of the fluorescent lucigenin, (9,9′-bis(N-methyl-acridinium nitrate) (Sigma Chemical Company). This provides a direct and specific measure of agonist-induced superoxide production. Lucigenin-dependant chemiluminescence was measured as described previously Gyllenhannar H. (1987) J. Immunol. Methods 97:209-213. Briefly, 50 μl of 100 mg/ml of peptide or diluent and 250 ml of lucigenin was added to neutrophils (5×10^5 in 50 μl HBSS). The cells were placed in a water-jacketed luminometer chamber (37° C.) (Autolumat Plus Model LB 953, Berthold Technologies, Bundoora, Australia) and the resulting light output recorded in millivolts (mV) at 10 second intervals. The data was analysed with Multi-user software (Berthold Tubemaster, Bundoora, Australia).
Data are presented as mean±SEM of 3 experiments.

JNK = JNK phosphorylation in HL60 cells (western blot); type: cell-based; conditions: 15 min; TNF 100 U/ml, anisomycin 2.5 μg/ml
p38 [1] = test: p38 kinase activity in human neutrophils; type: cell-based
Protocol: as §1
Neutrophils were prepared from peripheral blood of healthy donors by a rapid single-step technique (Kumaratilake, L. M., Rathjen, D. A., Mack, P., Widmer, F., Prasertsiriroj, V., and Ferrante, A. (1995) J. Clin. Invest. 95: 2315-2323) using Hypaque-Ficoll and according to the institution's guidelines on human ethics. […] These were either used as cells in suspension or as adhered neutrophils by adding the cells to plasma coated plates as previously described (Powell, W., Gravel, S., Halwani, F., Hii, C. S., Huang, Z. H., Tan, A. M., and Ferrante, A. (1997) J. Immunol. 159: 2952-2959).
(§2) KHS (hereon referred to as “GCKR”) activity was assayed as described previously using myelin basic protein as a substrate (Shi, C. S., Leonardi, A., Kyriakis, J., Siebenlist, U., and Kerhl, J. H. (1999) J. Immunol. 163: 3279-3285). ASK-1 activation was determined in immunoprecipitates of ASK-1 by autophosphorylation (Kyriakis, J. M., and Auruch, J. (2001) Physiol. Rev. 81: 807-869). p38 and ERK activities were determined as described using myelin basic protein as a substrate (Hii, C. S., Huang, Z. H., Bilney, A., Costabile, M., Murray, A. W., Rathjen, D. A., Der, C. J., and Ferrante, A. (1998) J. Biol. Chem. 273: 19277-19282). […] A solid phase assay using glutathione-S-transferase (GST)-conjugated-jun (1-79) was employed to assay JNK activity (Hii, C. S., Huang, Z. H., Bilney, A., Costabile, M., Murray, A. W., Rathjen, D. A., Der, C. J., and Ferrante, A. (1998) J. Biol. Chem. 273: 19277-19282). Phosphorylated ASK-1, myelin basic protein and GST-jun (1-79) were fractionated on 8, 16 and 12% SDS polyacrylamide gels, respectively, and the bands were detected and radioactivity determined using an Instant Imager (Packard Instruments, Canberra, Australia).
(§3) The level of myelin basic protein phosphorylation was quantitated by an Instant Imager.

p38 [2] = test: p38 activation in 70Z/3 cells transfected with hTNFR1 constructs; type: cell-based, mouse; conditions: 5 min; TNF 1000 U/ml, peptides 10 μM
Protocol: The cells were then lysed, protein contents quantified and subjected to p38 kinase assay by Western blot. The results are presented as the mean+−sem of 3 experiments.
The cells were maintained in RPMI-1640 medium with 4.5 g/L glucose, 2 mM L-glutamine, […] 2-mercaptoethanol and 10% FCS in an atmosphere of 95% air and 5% CO2. Cells were plated onto 10 cm plates at 4×10^7 cells in 15 ml culture medium. Before performing transient transfection, plasmid DNA (hTNFR1), kindly provided by Dr M. Kronke, Institute of Medical Microbiology and Hygiene, Medical Center University of Cologne, Koln, Germany (Adam, D., Wiegmann, K., Adam-Klages, S., Ruff A., and Kronke, M. (1996) J. Biol. Chem. 271: 14617-22), (20 μg in 1 ml of RPMI1640) was mixed with LipofectAMINE 2000 (Invitrogen) (60 μl in 1 ml of RPMI) and the mixture were left at room temperature for 20 min. The mixture was directly added to the cells and incubated for 24 h. The cells were washed twice with HBSS before use.

p38 [3] = test: p38 activity in HUVEC (immunoprecipitation, myelin basic protein substrate); type: cell-based, human; conditions: 5 min; TNF 1,000 U/ml, peptides 10 μM
Protocol: as §3, §2

## CCCCCCCCCCCCCC(=O)O[C@@H]1[C@@H](C)[C@@]2(O)[C@@H](C=C(CO)C[C@]3(O)C(=O)C(C)=C[C@@H]23)[C@@H]2C(C)(C)[C@]12OC(C)=O [PMA, reference compound]
ERK1/ERK2
  activity/dual phosphorylation of ERK in neutrophils in suspension: increased the dual phosphorylation of ERK1/ERK2

## C[S+]([O-])c1ccc(-c2nc(-c3ccncc3)c(-c3ccc(F)cc3)[nH]2)cc1 (stereo not drawn) [SB203580, reference compound]
neutrophils; pre-incubated with inhibitor 30 min, then 10 μM TNF70-80
  effect on TNF70-80 stimulated neutrophil chemiluminescence response: significantly reduced

## COc1ccc(C[C@H]2NC[C@H](O)[C@H]2OC(C)=O)cc1 [anisomycin, reference compound]
JNK
  JNK phosphorylation in HL60 cells: increased JNK phosphorylation

## EDSGTT [Peptide M4-3]
p38 [1]; peptide pre-incubated with TNF medium (≈0.12 ng/ml TNF) 20 min, neutrophils 30 min
  effect on TNF (mononuclear leukocyte fluid)-induced p38 activation in human neutrophils: inhibition of TNF (mononuclear leukocyte fluid)-induced p38 activation

## H-Gly-Gly-Asp-Pro-Gly-Ile-Val-Thr-His-Ser-OH (H-GGDPGIVTHS-OH) [control peptide 205, control peptide, reference compound]
p38 [2]
  p38 activation in 70Z/3 cells transfected with wild type hTNFR1: failed to activate p38
p38 [3]
  activity of p38 in HUVEC: failed to stimulate p38
p38 [1]; 5 min, TNF 100 or 1000 U/ml, TNF70-80 10-50 μM
  activity of p38 in neutrophils in suspension: did not activate p38

## H-Gly-Thr-Thr-OH (listed as Homo sapiens) [Peptide M4-2]
neutrophils; peptide mixed with TNF at 37° C. for 20 min, then added to neutrophils
  effect on TNF-induced superoxide generation of neutrophils: Inhibits TNF-Induced Superoxide Generation

## His6-Leu-Lys-Pro-Gly-Thr-Thr-OH (HHHHHHLKPGTT-OH; listed as Homo sapiens) [Peptide M4]
neutrophils; TNFR1 fragment pre-incubated with neutrophils 30 min, then TNF70-80 (100 μg)
  effect on TNF70-80-induced superoxide production in neutrophils: can block the biological activity of the TNF70-80

From patent US8268635B2, “Methods of identifying agents that selectively activate p38 and/or NKkB signaling” (priority 2006, dated 2012)
